Data as given in patent publication US20090298878A1, “OXIME COMPOUNDS AND THE USE THEREOF” (priority 2006, published 2009).
Structures can show the parent of a compound that is named as a salt.

How the values were obtained:
[1] = molecular target: T1, N-type calcium channel (NTCC) (Homo sapiens, UniProt Q00975); assay: FLIPR calcium mobilization assay for N-type calcium channel (differentiated IMR32 cells); format: cell-based; settings: calcium mobilization in vitro assay, N-type calcium channel blockers
T1 construct: host or cells: IMR32 cells differentiated with dibutyryl cAMP and bromodeoxyuridine
Method in brief: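 Human IMR32 cells differentiated 8 days (1 mM dibutyryl cAMP, 2.5 μM BrdU), pre-stimulated 1 h with 90 mM KCl plus compound (~846 pM–17 μM) and 5 μM nitrendipine, Fluo-4 loaded. FLIPR read basal fluorescence 315 s, then 90 mM KCl agonist added and fluorescence recorded 45 s; non-linear regression.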

[2] = molecular target: T2, L-type calcium channel (LTCC) subunits (α1c, α2δ, and β1) (Rattus norvegicus, UniProt P22002); assay: FLIPR calcium mobilization assay for L-type calcium channel (HEK293 cells expressing recombinant rat LTCC subunits); format: cell-based; settings: calcium mobilization in vitro assay, L-type calcium channel blockers
T2 construct: expressed in transfected cells; pcDNA6.2DEST for α1c, pcDNA3.2DEST for β1, pcDNA3.1-Zeo for α2δ
Procedure: Recombinant human embryonal kidney cells (HEK293, ATCC) stably transfected with either N-type calcium channel (NTCC) subunits (α1b, α2δ, and β3) or L-type calcium channel (LTCC) subunits (α1c, α2δ, and β1) were routinely cultured in growth medium consisting of Dulbecco's Modified Eagles Medium containing 10% FBS, 100 U/mL penicillin, 100 μg/mL streptomycin, 4 mM L-glutamine, 500 μg/mL geneticin (G418), 20 μg/mL Blasticidin S (InVivogen, San Diego, Calif.) and 500 μg/mL zeocin (InVivogen).
FLIPR Calcium Mobilization Assay for L-type Calcium Channel. One day prior to performing this assay, HEK293 cells stably expressing recombinant rat L-type calcium channel (LTCC) subunits (α1c, α2δ, and β1) were trypsinized, then seeded on poly-D-lysine-coated 96-well clear-bottom black plates (Becton Dickinson, Franklin Lakes, N.J.) at 75,000 cells/well. On the day of the assay, the plates were washed with LTCC wash buffer (127 mM NaCl, 2 mM MgCl2, 700 μM NaH2PO4, […], 5 mM NaHCO3, 8 mM HEPES, 10 mM glucose, pH 7.4), then loaded with 0.1 mL of LTCC wash buffer containing Fluo-4 (3 μM final concentration, Molecular Probes, Eugene, Oreg.). After 1 hour, the cells were washed with 0.1 mL LTCC wash buffer and resuspended in 0.05 mL LTCC assay buffer (same composition as LTCC wash buffer). Plates were then transferred to a FLIPR^96 for assay. The FLIPR measured basal Fluo-4 fluorescence for 15 seconds, then added 0.05 mL of each compound tested diluted in LTCC assay buffer at final concentrations ranging from about 846 pM to about 17 μM. Fluo-4 fluorescence was then measured for 5 minutes. 0.1 mL KCl agonist dissolved in LTCC assay buffer was then added to the cells to produce a final concentration of 90 mM KCl, and fluorescence was measured for another 45 seconds. Data were collected over the entire time course and analyzed using Excel, Graph Pad Prism, or an in-house regression analysis software.
Cloning of N- and L-type calcium channel subunit open reading frame cDNAs. Five cDNAs encoding subunits of the rat N- or L-type calcium channels were cloned by PCR amplification in order to reconstitute functional channels in a heterologous system. These were the alpha1b (α1b), beta1 (β1), beta3 (β3), alpha2delta (α2δ), and alpha1c (α1c) subunit cDNAs. The alpha1b subunit cDNA has been described by Dubel et al. in Proc. Natl. Acad. Sci. U.S.A 89: 5058-5062 (1992). The beta1 subunit cDNA has been described by Pragnell et al. in FEBS Lett. 291: 253-258 (1991). The beta3 subunit cDNA has been described by Castellano et al. in J. Biol. Chem. 268: 12359-12366 (1993). The alpha2delta subunit cDNA has been described by Kim et al. in Proc. Natl. Acad. Sci. U.S.A. 89: 3251-3255 (1992). The alpha1c subunit cDNA has been described by Koch et al. in J. Biol. Chem. 265: 17786-17791 (1990).
The 6.5 kb cDNA encoding the L-type calcium channel α1c subunit was cloned by PCR amplification from rat heart cDNA using primers 11 (SEQ ID NO: 11, TABLE 1) and 12 (SEQ ID NO:12, TABLE 1). The PCR fragment was subcloned and fully sequenced on both strands to confirm its identity. A clone matching consensus reference sequence M59786 and rat genomic DNA sequences was recombined into the mammalian expression vector pcDNA6.2DEST. Sequences around the recombinogenic region were sequenced to confirm accurate recombination into the expression vector.
L-type Recombinant Cell Line Development. L-type calcium channel expressing HEK-293 cells were created in two stages. Stage 1 was created as follows. The rat α1c, and β1 cDNA expression constructs (2.5 μg each) were co-transfected into human embryonic kidney (HEK-293) cells by Lipofectamine Plus reagent (Invitrogen), as per manufacturer's instructions. 24 hours later, cells were split in limiting dilution into multiple 96-well plates in selection media containing 20 μg/mL blasticidin and 500 μg/mL geneticin, and incubated for 3 weeks at 37° C., 5% CO2, 95% humidity. […]

T1 sequence (Q00975 whole entry): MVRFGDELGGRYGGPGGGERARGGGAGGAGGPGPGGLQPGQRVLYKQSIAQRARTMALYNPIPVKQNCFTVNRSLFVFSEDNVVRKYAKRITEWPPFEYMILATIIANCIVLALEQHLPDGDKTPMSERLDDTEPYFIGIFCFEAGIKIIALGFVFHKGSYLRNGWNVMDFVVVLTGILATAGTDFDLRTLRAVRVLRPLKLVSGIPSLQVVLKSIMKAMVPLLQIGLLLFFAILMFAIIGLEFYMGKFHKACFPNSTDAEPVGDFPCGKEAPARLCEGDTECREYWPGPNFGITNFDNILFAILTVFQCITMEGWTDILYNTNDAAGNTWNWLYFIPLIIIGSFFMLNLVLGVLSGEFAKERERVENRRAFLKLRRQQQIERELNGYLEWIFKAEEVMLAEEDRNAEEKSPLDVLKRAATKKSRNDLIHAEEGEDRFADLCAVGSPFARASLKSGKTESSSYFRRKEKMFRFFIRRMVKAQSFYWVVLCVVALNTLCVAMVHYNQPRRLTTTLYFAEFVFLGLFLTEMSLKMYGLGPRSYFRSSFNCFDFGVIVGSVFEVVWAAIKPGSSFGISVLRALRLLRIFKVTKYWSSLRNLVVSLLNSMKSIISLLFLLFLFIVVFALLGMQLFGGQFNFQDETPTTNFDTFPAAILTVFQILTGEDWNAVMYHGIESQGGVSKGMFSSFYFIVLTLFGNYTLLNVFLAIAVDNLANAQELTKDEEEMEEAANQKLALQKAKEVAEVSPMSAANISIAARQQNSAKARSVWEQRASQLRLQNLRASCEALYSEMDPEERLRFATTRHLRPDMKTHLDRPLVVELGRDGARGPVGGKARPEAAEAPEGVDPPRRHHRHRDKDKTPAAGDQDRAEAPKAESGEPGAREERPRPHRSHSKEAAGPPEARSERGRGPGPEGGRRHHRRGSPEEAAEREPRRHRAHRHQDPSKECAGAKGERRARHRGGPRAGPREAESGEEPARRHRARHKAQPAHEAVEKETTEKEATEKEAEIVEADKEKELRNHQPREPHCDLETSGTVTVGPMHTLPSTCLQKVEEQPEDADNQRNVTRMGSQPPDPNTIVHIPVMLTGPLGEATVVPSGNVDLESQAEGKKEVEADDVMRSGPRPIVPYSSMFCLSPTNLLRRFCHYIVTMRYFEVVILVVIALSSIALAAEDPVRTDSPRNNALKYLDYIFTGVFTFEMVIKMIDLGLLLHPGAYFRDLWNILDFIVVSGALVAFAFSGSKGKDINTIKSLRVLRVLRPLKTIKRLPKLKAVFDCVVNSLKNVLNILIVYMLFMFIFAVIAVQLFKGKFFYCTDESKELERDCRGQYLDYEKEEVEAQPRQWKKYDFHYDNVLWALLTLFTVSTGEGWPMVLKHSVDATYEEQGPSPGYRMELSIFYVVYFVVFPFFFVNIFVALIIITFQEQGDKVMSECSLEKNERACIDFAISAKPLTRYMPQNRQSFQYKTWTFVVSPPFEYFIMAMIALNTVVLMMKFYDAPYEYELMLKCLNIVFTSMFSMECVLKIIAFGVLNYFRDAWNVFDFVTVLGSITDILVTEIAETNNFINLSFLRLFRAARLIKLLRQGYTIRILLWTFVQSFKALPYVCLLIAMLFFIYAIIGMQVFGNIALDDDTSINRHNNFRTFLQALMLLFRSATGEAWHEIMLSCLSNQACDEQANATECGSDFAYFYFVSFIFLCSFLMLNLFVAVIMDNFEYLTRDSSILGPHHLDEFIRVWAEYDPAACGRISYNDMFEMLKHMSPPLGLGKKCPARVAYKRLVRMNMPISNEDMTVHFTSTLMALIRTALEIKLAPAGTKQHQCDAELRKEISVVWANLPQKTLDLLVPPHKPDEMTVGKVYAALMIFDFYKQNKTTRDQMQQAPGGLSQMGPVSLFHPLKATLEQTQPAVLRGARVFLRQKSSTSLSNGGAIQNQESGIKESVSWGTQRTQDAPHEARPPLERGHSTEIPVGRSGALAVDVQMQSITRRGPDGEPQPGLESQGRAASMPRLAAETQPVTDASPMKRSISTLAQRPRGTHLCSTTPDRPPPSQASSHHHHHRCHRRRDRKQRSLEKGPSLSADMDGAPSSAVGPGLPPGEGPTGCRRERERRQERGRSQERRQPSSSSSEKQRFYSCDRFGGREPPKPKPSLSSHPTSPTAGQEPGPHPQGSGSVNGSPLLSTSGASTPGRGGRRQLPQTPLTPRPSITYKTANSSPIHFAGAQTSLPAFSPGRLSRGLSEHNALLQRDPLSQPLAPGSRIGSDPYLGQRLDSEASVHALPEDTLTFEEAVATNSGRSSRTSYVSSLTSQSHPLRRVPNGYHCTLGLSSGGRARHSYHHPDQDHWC
T2 sequence (P22002 whole entry): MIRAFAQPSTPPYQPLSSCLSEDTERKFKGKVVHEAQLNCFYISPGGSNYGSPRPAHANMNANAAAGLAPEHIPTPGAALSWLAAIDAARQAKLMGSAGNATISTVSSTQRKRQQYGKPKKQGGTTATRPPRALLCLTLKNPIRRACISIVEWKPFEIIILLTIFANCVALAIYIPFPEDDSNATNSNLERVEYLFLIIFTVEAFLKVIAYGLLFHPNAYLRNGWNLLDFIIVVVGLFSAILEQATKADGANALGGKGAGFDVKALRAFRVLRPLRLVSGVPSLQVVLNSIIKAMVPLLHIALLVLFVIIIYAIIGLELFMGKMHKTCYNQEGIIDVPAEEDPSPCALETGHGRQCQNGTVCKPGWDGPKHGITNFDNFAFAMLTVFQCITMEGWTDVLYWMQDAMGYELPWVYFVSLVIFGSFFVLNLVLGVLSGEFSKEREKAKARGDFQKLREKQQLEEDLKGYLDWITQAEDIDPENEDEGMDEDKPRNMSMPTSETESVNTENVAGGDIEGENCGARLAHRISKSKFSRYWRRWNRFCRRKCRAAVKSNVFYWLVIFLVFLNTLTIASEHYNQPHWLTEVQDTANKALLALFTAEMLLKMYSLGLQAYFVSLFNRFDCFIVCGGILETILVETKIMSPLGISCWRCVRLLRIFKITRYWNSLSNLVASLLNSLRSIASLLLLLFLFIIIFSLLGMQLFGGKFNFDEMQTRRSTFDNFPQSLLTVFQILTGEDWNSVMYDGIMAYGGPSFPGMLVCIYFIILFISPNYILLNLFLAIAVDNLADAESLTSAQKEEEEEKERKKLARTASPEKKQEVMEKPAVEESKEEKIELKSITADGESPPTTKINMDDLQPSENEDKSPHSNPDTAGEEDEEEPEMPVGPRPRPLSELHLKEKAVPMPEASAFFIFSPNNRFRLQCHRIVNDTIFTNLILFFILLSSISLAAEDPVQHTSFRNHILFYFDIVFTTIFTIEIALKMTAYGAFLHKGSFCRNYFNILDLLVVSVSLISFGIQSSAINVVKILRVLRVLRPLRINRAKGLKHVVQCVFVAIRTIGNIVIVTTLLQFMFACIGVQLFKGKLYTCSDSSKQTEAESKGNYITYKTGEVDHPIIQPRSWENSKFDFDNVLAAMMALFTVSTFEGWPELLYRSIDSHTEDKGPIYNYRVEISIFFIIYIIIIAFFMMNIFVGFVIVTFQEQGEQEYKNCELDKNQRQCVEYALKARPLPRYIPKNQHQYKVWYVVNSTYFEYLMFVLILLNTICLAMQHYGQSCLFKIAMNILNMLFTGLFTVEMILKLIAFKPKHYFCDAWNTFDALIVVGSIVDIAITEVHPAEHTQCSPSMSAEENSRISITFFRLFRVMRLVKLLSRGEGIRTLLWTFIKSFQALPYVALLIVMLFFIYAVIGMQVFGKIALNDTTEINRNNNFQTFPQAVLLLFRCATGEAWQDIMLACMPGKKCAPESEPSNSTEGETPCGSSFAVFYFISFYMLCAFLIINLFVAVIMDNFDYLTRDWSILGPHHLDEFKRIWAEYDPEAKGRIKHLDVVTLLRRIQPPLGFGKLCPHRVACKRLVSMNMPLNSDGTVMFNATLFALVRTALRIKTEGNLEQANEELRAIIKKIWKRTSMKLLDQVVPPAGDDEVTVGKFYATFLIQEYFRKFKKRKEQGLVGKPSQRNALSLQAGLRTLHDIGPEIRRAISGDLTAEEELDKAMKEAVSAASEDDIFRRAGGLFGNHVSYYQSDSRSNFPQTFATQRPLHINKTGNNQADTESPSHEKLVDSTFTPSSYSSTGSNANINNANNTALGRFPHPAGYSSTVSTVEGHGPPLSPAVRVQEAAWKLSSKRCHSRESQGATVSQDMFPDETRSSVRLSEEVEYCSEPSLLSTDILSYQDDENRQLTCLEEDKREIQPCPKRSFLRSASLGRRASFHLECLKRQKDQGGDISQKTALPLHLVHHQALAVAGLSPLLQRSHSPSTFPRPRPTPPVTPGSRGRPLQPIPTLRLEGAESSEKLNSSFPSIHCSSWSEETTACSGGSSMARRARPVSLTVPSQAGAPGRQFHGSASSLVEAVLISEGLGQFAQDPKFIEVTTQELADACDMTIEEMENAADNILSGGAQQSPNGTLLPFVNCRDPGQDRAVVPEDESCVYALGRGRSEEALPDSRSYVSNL

Compound | IC50 [1] | IC50 [2]
CC(C)C[C@H](N)C(=O)N1CCC(=NOCc2cccc(C(F)(F)F)c2)CC1 [Example 8, 1-((S)-2-Amino-4-methylpentanoyl)piperidin-4-one O-(3-trifluoromethylbenzyl)oxime hydrochloride] | 690 nM | 9.6 µM
Fc1ccc(C(CCCN2CCC(=NOCc3cccc(C(F)(F)F)c3)CC2)c2ccc(F)cc2)cc1 [Example 12, 1-[4,4-Bis-(4-fluorophenyl)butyl]piperidin-4-one O-(3-trifluoromethylbenzyl)oxime oxalate] | 820 nM | > 20 µM
Fc1ccc(C(CCCN2CCC(=NOCc3cccnc3)CC2)c2ccc(F)cc2)cc1 [Example 16, 1-[4,4-Bis-(4-fluorophenyl)butyl]piperidin-4-one O-pyridin-3-ylmethyloxime dioxalate] | 260 nM | 6.6 µM
O=C(CCC(c1ccc(F)cc1)c1ccc(F)cc1)N1CCC(=NOCc2ccncc2)CC1 [Example 19, 1-[4,4-Bis-(4-fluorophenyl)butyryl]piperidin-4-one O-pyridin-4-ylmethyloxime oxalate] | 760 nM | 4.9 µM
CC(C)C[C@H](N)CC(=O)N1CCC(=NOCc2cccc(C(F)(F)F)c2)CC1 [Example 24, 1-((S)-3-Amino-5-methylhexanoyl)piperidin-4-one O-(3-trifluoromethylbenzyl)oxime oxalate] | 990 nM | 7.2 µM
O=C(CCC(c1ccc(F)cc1)c1ccc(F)cc1)N1CCC(=NOCc2ccc(C(F)(F)F)cc2)CC1 [Example 30, 1-[4,4-Bis-(4-fluorophenyl)butyryl]piperidin-4-one O-(4-trifluoromethylbenzyl)oxime] | 330 nM | > 20 µM
CCCCc1ccc(S(=O)(=O)N2CCC(=NOCc3cccc(C(F)(F)F)c3)CC2)cc1 [Example 50, 1-(4-Butyl-benzenesulfonyl)piperidin-4-one O-(3-trifluoromethylbenzyl)oxime] | 430 nM | > 20 µM
CCCCc1ccc(S(=O)(=O)N2CCC(=NOCc3cccc(C#N)c3)CC2)cc1 [Example 77, 3-[1-(4-Butylbenzenesulfonyl)piperidin-4-ylideneaminooxymethyl]benzonitrile] | 220 nM | > 20 µM
N#Cc1cc(CON=C2CCN(C(c3ccc(F)cc3)c3ccc(F)cc3)CC2)ccc1F [Example 182, 5-((1-(Bis(4-fluorophenyl)methyl)piperidin-4-ylideneaminooxy)methyl)-2-fluorobenzonitrile hydrochloride] | 690 nM | > 20 µM
O=S(=O)(c1cccc(C(F)(F)F)c1)N1CCC(=NOCC2CCCCC2)CC1 [Example 277, 1-(3-(Trifluoromethyl)phenylsulfonyl)piperidin-4-one O-cyclohexylmethyl oxime] | 610 nM | > 20 µM
O=c1ccc(CON=C2CCN(S(=O)(=O)c3ccc(OC(F)(F)F)cc3)CC2)cn1Cc1ccc(F)cc1 [Example 295, 1-(4-Fluorobenzyl)-5-((1-(4-(trifluoromethoxy)phenylsulfonyl)piperidin-4-ylideneaminooxy)methyl)pyridin-2(1H)-one] | 160 nM | > 20 µM
O=S(=O)(c1ccc(OC(F)(F)F)cc1)N1CCC(=NOCc2nc3cc(Cl)cnc3[nH]2)CC1 [Example 308, 1-(4-(Trifluoromethoxy)phenylsulfonyl)piperidin-4-one O-(6-chloro-3H-imidazo[4,5-b]pyridin-2-yl)methyl oxime] | 360 nM | > 20 µM
CCCCCC(C)ON=C1CCN(S(=O)(=O)c2cccc(C(F)(F)F)c2)CC1 (centres unmarked) [Example 369, 1-(3-(Trifluoromethyl)phenylsulfonyl)piperidin-4-one O-heptan-2-yl oxime] | 80 nM | > 20 µM
